Measurements taken from patent publication US8501995B2, “β-phenylethylidenehydrazine derivatives” (The Governors of the University of Alberta, priority 2009, dated 2013).
Where two headings read alike, the source gives them in different places.

How the values were obtained:
GABA-T [1] = target: T1, GABA-T (Rattus norvegicus, UniProt P50554); test: GABA-T activity ex vivo in brain homogenates of drug-treated rats (radiochemical); conditions: i.p., equimolar doses (PEH 30 mg/kg, 7p 47 mg/kg, 8p 38.5 mg/kg)
T1 construct: Brain homogenate from control rats was pre-incubated with the drug of interest; from tissue; host or cells: rat (male Sprague-Dawley) whole brain homogenate
T1 sequence (P50554 28-500): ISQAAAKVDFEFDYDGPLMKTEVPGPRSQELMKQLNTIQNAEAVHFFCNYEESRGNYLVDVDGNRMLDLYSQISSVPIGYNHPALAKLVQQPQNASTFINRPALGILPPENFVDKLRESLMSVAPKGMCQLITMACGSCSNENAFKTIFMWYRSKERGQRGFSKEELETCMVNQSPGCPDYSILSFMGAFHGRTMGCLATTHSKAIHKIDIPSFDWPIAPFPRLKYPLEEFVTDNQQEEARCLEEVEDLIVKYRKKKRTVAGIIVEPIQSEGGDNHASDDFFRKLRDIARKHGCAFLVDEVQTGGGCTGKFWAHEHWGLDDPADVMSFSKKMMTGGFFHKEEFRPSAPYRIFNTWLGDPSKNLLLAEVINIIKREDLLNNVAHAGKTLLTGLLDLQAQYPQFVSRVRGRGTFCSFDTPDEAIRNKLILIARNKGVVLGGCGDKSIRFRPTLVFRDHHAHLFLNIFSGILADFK
Method: (§1) Male Sprague-Dawley rats (approximately 300 g) were pair-housed in polycarbonate cages with free access to food (Purina Rat Chow) and water, and were maintained on a 12-hour light-dark cycle (lights on at 0800). All animal procedures were approved by the University of Alberta Biosciences Animal Policy and Welfare Committee, and were carried out in accordance with the guidelines of the Canadian Council on Animal Care.
(§2) In the ex vivo studies, animals were injected intraperitoneally with equimolar amounts of PEH (30 mg/kg), 7p (47 mg/kg) or 8p (38.5 mg/kg) or vehicle (corn oil) and were killed by decapitation 3, 6 or 12 hours following drug administration. Brains were rapidly removed and flash-frozen in 2-methylbutane on solid carbon dioxide, and were stored at −80° C. Subsequently, partially-thawed brains were homogenized in 5 volumes of ice-cold distilled water, and stored in aliquots at -80° C. for use in subsequent analyses (GABA-T, MAO-A, MAO-B, and brain levels of amino acids) after addition to the appropriate buffer medium.
(§3) A modification of the colorimetric method of Sethi^49 was used in the initial in vitro screen. Brain homogenate from control rats was pre-incubated with the drug of interest and an incubation buffer before conducting the assay. In the ex vivo study of homogenates from brains of rats treated with the analogs, GABA-T activity was measured using the radiochemical procedure of Sterri and Fonnum.^20 Briefly, homogenates were incubated with radiolabelled GABA in a buffer containing pyridoxal phosphate and the resultant products were isolated using a liquid anion exchanger (tri-n-octylamine). Radioactivity (dpm) was counted using a Beckman LS 7500 liquid scintillation spectrometer.

MAO-A [2] = target: T2, MAO-A (Rattus norvegicus, UniProt P21396); test: MAO-A inhibition in vitro in control rat brain homogenate (14C-5-hydroxytryptamine substrate); format: biochemical
T2 construct: from tissue; host or cells: rat (male Sprague-Dawley) whole brain homogenate
T2 sequence (P21396 1-526): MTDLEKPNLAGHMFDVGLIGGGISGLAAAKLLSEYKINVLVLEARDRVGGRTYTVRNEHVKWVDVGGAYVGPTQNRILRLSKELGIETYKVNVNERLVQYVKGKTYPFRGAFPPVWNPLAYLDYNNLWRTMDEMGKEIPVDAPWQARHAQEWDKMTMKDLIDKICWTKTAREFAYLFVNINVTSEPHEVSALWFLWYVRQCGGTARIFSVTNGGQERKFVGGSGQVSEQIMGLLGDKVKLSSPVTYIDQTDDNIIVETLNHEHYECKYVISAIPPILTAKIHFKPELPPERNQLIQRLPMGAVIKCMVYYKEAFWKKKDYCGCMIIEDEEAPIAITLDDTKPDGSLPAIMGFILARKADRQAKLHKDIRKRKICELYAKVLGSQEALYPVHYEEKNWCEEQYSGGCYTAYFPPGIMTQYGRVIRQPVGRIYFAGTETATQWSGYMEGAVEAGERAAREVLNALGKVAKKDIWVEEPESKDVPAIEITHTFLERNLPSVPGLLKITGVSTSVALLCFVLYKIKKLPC
Method: (§4) Monoamine oxidase activity was determined using a modified protocol described by Lyles and Callingham.^51 In the in vitro studies, the drugs were pre-incubated with control rat brain homogenate prior to conducting the assay. Briefly, tissue homogenate was diluted in KH2PO4 (0.2M), and an aliquot (50 μl) was incubated with the appropriate radiolabelled substrates (^14C-labelled 5-hydroxytryptamine and β-phenylethylamine were used as substrates for MAO-A and -B respectively). The reaction products were extracted by a mixture of ethyl acetate and toluene (1:1 v/v), and a portion of the top layer was added to a vial containing scintillation fluid for radioactivity measurement. Radioactivity (dpm) was counted using a Beckman LS 7500 liquid scintillation spectrometer.

MAO-B [3] = target: T3, MAO-B (Rattus norvegicus, UniProt P19643); test: MAO-B inhibition in vitro in control rat brain homogenate (14C-β-phenylethylamine substrate); format: biochemical
T3 construct: the drugs were pre-incubated with control rat brain homogenate prior to conducting the assay; from tissue; host or cells: rat (male Sprague-Dawley) whole brain homogenate
T3 sequence (P19643 1-520): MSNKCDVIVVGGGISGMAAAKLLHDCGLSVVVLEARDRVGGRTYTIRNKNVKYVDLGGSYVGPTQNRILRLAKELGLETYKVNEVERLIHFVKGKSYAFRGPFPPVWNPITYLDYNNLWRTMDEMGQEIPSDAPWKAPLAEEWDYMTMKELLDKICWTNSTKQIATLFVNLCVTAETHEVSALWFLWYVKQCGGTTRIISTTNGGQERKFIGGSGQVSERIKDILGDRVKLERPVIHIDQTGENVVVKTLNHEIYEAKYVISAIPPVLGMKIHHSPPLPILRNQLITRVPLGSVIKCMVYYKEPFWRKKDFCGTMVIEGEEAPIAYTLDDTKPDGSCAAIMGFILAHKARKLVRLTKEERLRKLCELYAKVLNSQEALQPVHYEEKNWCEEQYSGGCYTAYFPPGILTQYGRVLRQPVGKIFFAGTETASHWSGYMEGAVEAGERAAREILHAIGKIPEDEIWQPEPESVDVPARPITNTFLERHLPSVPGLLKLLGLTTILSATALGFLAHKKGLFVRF
Method: as §4

MAO-A [4] = target: T2, MAO-A; test: MAO-A activity ex vivo in brain tissue of drug-treated rats; conditions: for effect on MAO-A activity ex vivo: time points tested 3, 6, 12 hours, i.p., equimolar doses (PEH 30 mg/kg, 7p 47 mg/kg, 8p 38.5 mg/kg); for MAO-A activity ex vivo / MAO-A inhibition ex vivo: 8p 38.5 mg/kg i.p.
Method: as §1, §2, §4

MAO-B [5] = target: T3, MAO-B; test: MAO-B activity ex vivo in brain tissue of drug-treated rats; conditions: i.p.; for MAO-B activity ex vivo: 7p 47 mg/kg, 8p 38.5 mg/kg; for effect on MAO-B activity ex vivo: time points tested 3, 6, 12 hours, equimolar doses (PEH 30 mg/kg, 7p 47 mg/kg, 8p 38.5 mg/kg)
Method: as §1, §2, §4

[6] = test system: brain levels of amino acids (GABA, glutamate, alanine and glycine); format: in vivo; conditions: rat whole brain; for effect on brain GABA levels / effect on brain alanine levels / effect on brain glutamate levels / effect on brain glycine levels: 3, 6, 12 hours, i.p., equimolar doses (PEH 30 mg/kg, 7p 47 mg/kg, 8p 38.5 mg/kg)
Method: as §1, §2
Amino acid levels (GABA, glutamate, alanine and glycine) were determined using a modified procedure previously described by Grant and colleagues^52 for the quantification of amino acids using HPLC combined with fluorescence detection, following derivatization with fluoraldehyde reagent [o-phthaldialdehyde (OPA)] and isobutyryl-L-cysteine (IBLC). Briefly, a portion of the homogenate (100 μl) was added to ice-cold methanol (400 μl), re-homogenized and centrifuged (13,000 g, 4° C.). The supernatants were further diluted by a factor of 2 in ice-cold water, and transferred to HPLC vials. A portion of the supernatant (5 μl) was reacted with OPA/IBLC (5 μl) in the injection loop of a Waters Alliance 2690XE system for 1.5 minutes before injection onto the analytical column (Symmetry C18 5 μm (4.6×150 mm)), connected to a Symmetry C18 guard column, held at 30° C. A Waters 474 fluorescence detector was set to an excitation wavelength of 344 nm and an emission wavelength of 443 nm. Data were collected and analyzed using the Empower Pro software package (Waters).

GABA-T [7] = target: T1, GABA-T; test: GABA-T inhibition in vitro, colorimetric screen in control rat brain homogenate; format: biochemical
Method: as §3

[8] = 6 hours following drug injection
[9] = 12 hours following drug injection
[10] = 3 hours following drug administration
[11] = 6 hours following drug administration
[12] = rat brain homogenate, mean±SEM, n=4
[13] = 3 hours following injection, PEH 30 mg/kg i.p.

Structure (SMILES): C#CCN(CC#C)/N=C/Cc1ccccc1 [7p]
- GABA-T activity ex vivo (GABA-T [1]; 3 hours post-injection): 86 % of control
- GABA-T activity ex vivo (GABA-T [1]; 6 hours post-injection): 86 % of control
- GABA-T activity ex vivo (GABA-T [1]; 12 hours post-injection): not significantly different from control values
- inhibition of MAO-A in vitro (MAO-A [2]; concentration of 10 μM): neither 7p nor 8p caused any inhibition of MAO-A or -B
- inhibition of MAO-B in vitro (MAO-B [3]; concentration of 10 μM): neither 7p nor 8p caused any inhibition of MAO-A or -B
- effect on MAO-A activity ex vivo (MAO-A [4]): did not significantly alter MAO-A activity at any time point tested
- MAO-B activity ex vivo (MAO-B [5]; [8]): 58 % of control
- MAO-B activity ex vivo (MAO-B [5]; [9]): 25 % of control
- effect on MAO-B activity ex vivo (MAO-B [5]): significantly reducing MAO-B activity at all time points tested
- effect on brain GABA levels [6]: did not significantly alter the levels of GABA, alanine or glutamate at any time point tested
- effect on brain alanine levels [6]: did not significantly alter the levels of GABA, alanine or glutamate at any time point tested
- effect on brain glutamate levels [6]: did not significantly alter the levels of GABA, alanine or glutamate at any time point tested
- effect on brain glycine levels [6]: increased glycine at 3, 6 and 12 hours post-injection
- brain glycine level ([6]; 12 hours post-injection, 7p 47 mg/kg i.p.): 248 % of control

Structure (SMILES): C#CCNN=CCc1ccccc1 [8p, (E)- and (Z)-N-(2-Propynyl)-2-(phenyl)ethylidene]hydrazines]
- GABA-T activity ex vivo (GABA-T [1]; 3 hours post-injection): 76 % of control
- GABA-T activity ex vivo (GABA-T [1]; 6 hours post-injection): 77 % of control
- GABA-T activity ex vivo (GABA-T [1]; 12 hours post-injection): not significantly different from control values
- inhibition of MAO-A in vitro (MAO-A [2]; concentration of 10 μM): neither 7p nor 8p caused any inhibition of MAO-A or -B
- inhibition of MAO-B in vitro (MAO-B [3]; concentration of 10 μM): neither 7p nor 8p caused any inhibition of MAO-A or -B
- MAO-A activity ex vivo (MAO-A [4]; [10]): 78 % of control
- MAO-A inhibition ex vivo (MAO-A [4]; [10]): 22%
- MAO-A activity ex vivo (MAO-A [4]; [11]): 70 % of control
- MAO-A inhibition ex vivo (MAO-A [4]; [11]): 30%
- effect on MAO-A activity ex vivo (MAO-A [4]): weak, transient effect on MAO-A
- MAO-B activity ex vivo (MAO-B [5]; [8]): 24 % of control
- MAO-B activity ex vivo (MAO-B [5]; [9]): 29 % of control
- effect on MAO-B activity ex vivo (MAO-B [5]): significantly reducing MAO-B activity at all time points tested
- effect on brain GABA levels [6]: did not significantly alter the levels of GABA, alanine or glutamate at any time point tested
- effect on brain alanine levels [6]: did not significantly alter the levels of GABA, alanine or glutamate at any time point tested
- effect on brain glutamate levels [6]: did not significantly alter the levels of GABA, alanine or glutamate at any time point tested
- effect on brain glycine levels [6]: significantly increased glycine at 3 and 6 hours post-injection
- brain glycine level ([6]; 6 hours post-injection, 8p 38.5 mg/kg i.p.): 216 % of control

Structure (SMILES): NN=CCc1ccccc1 [PEH, β-Phenylethylidenehydrazine]
- inhibition at 10 µM (GABA-T [7]): ~50%
- GABA-T activity ex vivo (GABA-T [1]; 3 hours post-injection): 66 % of control
- GABA-T activity ex vivo (GABA-T [1]; 6 hours post-injection): 66 % of control
- GABA-T activity ex vivo (GABA-T [1]; 12 hours post-injection): 70 % of control
- inhibition of MAO-A in vitro (MAO-A [2]; [12]): 26.7±3.1%
- inhibition of MAO-B in vitro (MAO-B [3]; [12]): 14.9±6.6%
- effect on MAO-A activity ex vivo (MAO-A [4]): did not alter the activity of either MAO-A or -B
- effect on MAO-B activity ex vivo (MAO-B [5]): did not alter the activity of either MAO-A or -B
- effect on brain GABA levels [6]: increased brain GABA and alanine levels
- effect on brain alanine levels [6]: increased brain GABA and alanine levels
- effect on brain glutamate levels [6]: did not significantly alter brain glutamate or glycine levels
- effect on brain glycine levels [6]: did not significantly alter brain glutamate or glycine levels
- brain GABA level [6, 13]: 418 % of control
- brain alanine level [6, 13]: 489 % of control

Structure (SMILES): NNCCc1ccccc1 [PLZ, phenelzine, reference compound]
- inhibition of MAO-A in vitro (MAO-A [2]; [12]): greater than 95%
- inhibition of MAO-B in vitro (MAO-B [3]; [12]): greater than 95%
